This is an account of results in US5395932A, “2,3-,4-,5-,6-,7-,8-,9- and/or 10-substituted dibenzoxazepine compounds, pharmaceutical compositions and methods of use” (G. D. Searle & Co., priority 1993, dated 1995).

The target in experiment [1] is T1, prostaglandin E2-induced contractions of segments of guinea pig ileum (Cavia porcellus, UniProt A0A286XHJ6).
T1 construct: Segments of ileum about 2 cm long were then cut and mounted in a 10-mL tissue bath; from tissue; host or cells: guinea pig ileum segments
T1 sequence (A0A286XHJ6 1-405): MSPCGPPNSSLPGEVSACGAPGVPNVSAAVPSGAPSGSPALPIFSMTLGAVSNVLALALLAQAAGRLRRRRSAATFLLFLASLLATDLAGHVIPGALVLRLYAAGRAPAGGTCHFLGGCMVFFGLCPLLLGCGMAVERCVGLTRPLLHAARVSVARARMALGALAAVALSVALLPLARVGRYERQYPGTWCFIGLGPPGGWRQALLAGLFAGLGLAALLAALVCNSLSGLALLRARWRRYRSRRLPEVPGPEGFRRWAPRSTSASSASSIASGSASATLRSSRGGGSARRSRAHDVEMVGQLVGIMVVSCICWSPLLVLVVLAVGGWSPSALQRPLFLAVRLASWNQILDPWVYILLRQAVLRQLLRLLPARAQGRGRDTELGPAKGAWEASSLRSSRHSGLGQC
The experiment can be described thus: Prostaglandin (PGE) Antagonism Assay (guinea pig ileum). The class given is cell-based, male albino guinea pigs. The settings on record: estimated from 3 micromolar (dose ratio ≥2) or Schild plot (dose ratio ≥5); 37° C.; read-out: PGE ANTAGONISM IN GUINEA PIG ILEUM (pA2) (converted). The source says:
The phrase "EC50 concentration" as used herein means that concentration of a compound or drug which is necessary to elicit a 50% maximal biological response and, thus, which is necessary to elicit a 50% reduction in the contractions of guinea pig ileum segments in a prostaglandin antagonism assay. (b) Prostaglandin (PGE) Antagonism Assay In order to determine the effectiveness of several of the compounds of the present invention ("test compounds") as prostaglandin E2 antagonists,a prostaglandin antagonism assay was conducted, as described below, to determine the ability of these compounds to inhibit prostaglandin E2 -induced contractions of segments of guinea pig ileum. […] Male albino guinea pigs weighing 200 to 500 grams were sacrificed by cervical dislocation. The ilea were then quickly removed from the guinea pigs and placed in a modified Tyrode solution, a solution which is known to those skilled in the art, containing one-half of the usual amount of magnesium ions. Segments of ileum about 2 cm long were then cut and mounted in a 10-mL tissue bath containing the modified Tyrode solution. The solution was maintained at 37° C. and aerated with a gaseous mixture of 95% oxygen and 5% carbon dioxide. Data for a control prostaglandin E2 dose response curve plotting concentration of prostaglandin E2 versus the intensity of contractions, detected isotonically, was then obtained by experimentally adjusting the dose of the prostaglandin E2 being injected into the tissue bath, in a manner known by those of skill in the art. Solutions or suspensions containing an initial concentration (3 micromolar) of a test compound in modified Tyrode solution ("test solutions/suspensions") were then separately substituted for the control bath solution. Each test solution/suspension was then kept in constant contact with the ileum tissue, except for brief periods to drain the bath in preparation for rinsing with fresh test solution/suspension. A second prostaglandin E2 dose response curve was then generated for prostaglandin E2 in the presence of a test compound. A dose ratio of EC50 doses was then calculated from the results of each test in a manner known by those of skill in the art. A test compound was determined to be "active" if the initial concentration used yielded at least a two-fold shift (dose ratio greater than or equal to 2) in the dose response curve for prostaglandin E2. […] The compounds of the present invention which were tested in this assay, and for which results are presented in Table 1, correspond to the particular examples specified in Table 1.

A short description of experiment [2]: Writhing Assay (PBQ-induced writhing, analgesia). The class given is in vivo, Charles River male albino mice. The settings on record: Mus musculus, po, intragastric; for responders at 30 mg/kg: 30 mg per kilogram, 25 minutes before PBQ i.p., writhes ≤ one-half median of saline control, read-out: WRITHING ASSAY, number of mice out of 9 or 10 in which test compound produced analgesia (converted). Here is the method: The phrase "ED50 dose" as used herein means that dose of a compound or drug which produced a biological effect, such as producing analgesia, in 50% of the animals to which the compound or drug was administered. The Writhing Assay is one of the most widely-used experimental procedures for measuring the analgesic activity of different narcotic and nonnarcotic analgesic agents, and involves the continuous, chemically-induced pain of visceral origin to an animal, such as a mouse or rat. [Gyires et al., Arch. int. Pharmacodyn, 267, 131-140 (1984); […] al., Fed. Proc., 15, 494 (1956); Koster et al., Fed. Proc., 18, 412 (1959); and Witken et al., J. Pharmacol. exp. Ther., 133, 400-408 (1961).] Chemicals which may be used to induce this pain include phenylbenzoquinone (PBQ) and acetic acid. As a result of the chemical irritation to the animal, a characteristic stretching and writhing of the animal (dorsiflexion of the animal's back, extension of its hindlimbs and the strong contraction of its abdominal musculature) will generally occur. […] Drugs which reduce the number of writhes of the animal appear to restore the normal nociceptive threshold of the animal. […] Charles River male albino mice, weighing 20 to 30 grams were used in this assay. Twenty-five minutes after intragastric administration to nine or ten mice of 30 mg per kilogram of body weight of a compound of the present invention ("test compound"), […] per 10 g of body weight of a 0.025% w/v solution of PBQ was injected intraperitoneally into each mouse. Ten mice which were given saline in place of a test compound of the invention were used as a control group. Five minutes later, each mouse was individually placed into a glass beaker for observation, and the number of writhes occurring during the following ten-minute period was counted. A test compound was considered to have produced analgesia in a mouse if, in accordance with the conditions set forth above, and under the test criteria employed for this assay, after the administration of 30 mg per kilogram of body weight of a compound of the present invention to the mouse, the number of writhes elicited by a mouse injected with PBQ was equal to, or less than, one-half the median number of writhes recorded for the saline-treated control group of mice that day, as described by Taber in "Predictive Value of Analgesic Assays in Mice and Rats," Advances in Biochemical Psychopharmacology, 8, 191 (1974). The results for the particular compounds of the present invention analyzed in this assay, and discussed in the examples identified below which correspond thereto, are presented in Table 1 hereinbelow as fractions under the heading "WRITHING ASSAY." The fractions indicate the number of mice out of nine or ten in which a test compound produced analgesia. The standard initial screening dose of a test compound employed in this assay was 30 milligrams per […] of body weight. If this initial screening dose of the test compound produced analgesia in seven of nine or ten mice, then the effect of additional doses of the test compound on the writhing response was evaluated, and then the ED50 dose was generally calculated. (The slopes of the dose-response curves for all test compounds analyzed were compared as described by Tallarida and Murray, Manual of Pharmacologic Calculations, Page 11 (Springer Verlag, New York, 1981)). All ED50 doses calculated are also presented below as whole numbers in Table 1, under the heading "WRITHING ASSAY."
In general terms: Writhing tests count abdominal constrictions after an irritant is injected.

SMILES strings stand for the structures. Counter-ions that a name gives are not always drawn.

In the case of `CCOC(=O)c1coc(CN2Cc3ccccc3Oc3ccc(Cl)cc32)n1` [Example 7, Ethyl 2-[(8-chlorodibenz[b,f][1,4]oxazepin-10(11H)yl)methyl]-4-oxazole carboxylate], the Kb in experiment [1] was 0.794 µM. Besides, the responders at 30 mg/kg in experiment [2] was 90%.
With `O=C(O)c1coc(CN2Cc3ccccc3Oc3ccc(Cl)cc32)n1` [Example 8A, 2-[(8-chlorodibenz[b,f][1,4]oxazepin-10(11H)yl)methyl]-4-oxazole carboxylic acid, sodium salt], the Kb in experiment [1] is 0.0398 µM. The responders at 30 mg/kg in experiment [2] is 10%.
In the case of `O=C(NCCc1ccccn1)c1coc(CN2Cc3ccccc3Oc3ccc(Cl)cc32)n1` [Example 9, 2-[(8-chlorodibenz[b,f][1,4]oxazepin-10(11H)yl)methyl]-N-[2-(2-pyridinyl)ethyl]-4-oxazolecarboxamide, hydrochloride], the Kb in experiment [1] was 0.2 µM. Also, in experiment [2], the responders at 30 mg/kg was 70%.
As for `O=C(NCc1ccccn1)c1coc(CN2Cc3ccccc3Oc3ccc(Cl)cc32)n1` [Example 10, 2-[(8-chlorodibenz[b,f][1,4]oxazepin-10(11H)yl)methyl]-N-(2-pyridinylmethyl)-4-oxazolecarboxamide, monohydrochloride], the Kb in experiment [1] was 0.0316 µM. Moreover, the responders at 30 mg/kg in experiment [2] is 20%.
Consider `O=C(NCc1ccncc1)c1coc(CN2Cc3ccccc3Oc3ccc(Cl)cc32)n1` [Example 11, 2-[(8-chlorodibenz[b,f][1,4]oxazepin-10(11H)yl)methyl]-N-(4-pyridinylmethyl)-4-oxazolecarboxamide, monohydrochloride], for which the Kb in experiment [1] was 0.0251 µM. Moreover, the responders at 30 mg/kg in experiment [2] was 90%.
`O=C(OCc1ccncc1)c1coc(CN2Cc3ccccc3Oc3ccc(Cl)cc32)n1` [Example 12, 4-pyridinylmethyl 2-[(8-chlorodibenz[b,f][1,4]oxazepin-10(11H) -yl)methyl]-4-oxazole carboxylate, hydrochloride]: the responders at 30 mg/kg in experiment [2] was 40%.
With `O=C(NCCc1ccncc1)c1coc(CN2Cc3ccccc3Oc3ccc(Cl)cc32)n1` [Example 14, 2-[(8-chlorodibenz[b,f][1,4]oxazepin-10(11H)yl)methyl]-N-[2-(4-pyridinyl)ethyl]-4-oxazolecarboxamide, hydrochloride, acetate], the Kb in experiment [1] is 0.0158 µM. Besides, in experiment [2], the responders at 30 mg/kg is 60%.
For `O=C(NCc1cccs1)c1coc(CN2Cc3ccccc3Oc3ccc(Cl)cc32)n1` [Example 15, 2-[(8-chlorodibenz[b,f][1,4]oxazepin-10(11H)yl)methyl]-N-(2-thienylmethyl)-4-oxazolecarboxamide] the same measures were 0.158 µM and 70%.
In the case of `O=C(Nc1cncnc1)c1coc(CN2Cc3ccccc3Oc3ccc(Cl)cc32)n1` [Example 16, 2-[(8-chlorodibenz[b,f][1,4]oxazepin-10(11H)yl)methyl]-N-5-pyrimidinyl-4-oxazolecarboxamide], in experiment [1], the Kb was 3.16 µM.
Regarding `O=C(Nc1ccncc1)c1coc(CN2Cc3ccccc3Oc3ccc(Cl)cc32)n1` [Example 17, 2-[(8-chlorodibenz[b,f][1,4]oxazepin-10(11H)yl)methyl]-N-4-pyridinyl-4-oxazolecarboxamide, hydrochloride], the Kb in experiment [1] is 0.398 µM.
Turning to `CCOC(=O)c1csc(CN2Cc3ccccc3Oc3ccc(Cl)cc32)n1` [Example 19, ethyl 2-[(8-chlorodibenz[b,f][1,4]oxazepine-10(11H)yl)methyl]-4-thiazolecarboxylate], the Kb in experiment [1] was 1.58 µM. Besides, in experiment [2], the responders at 30 mg/kg is 10%.
Regarding `O=C(O)c1csc(CN2Cc3ccccc3Oc3ccc(Cl)cc32)n1` [Example 20, 2-[(8-chlorodibenz[b,f][1,4]oxazepin-10(11H)yl)methyl]-4-thiazolecarboxylicacid, sodium salt], the Kb in experiment [1] is 0.00794 µM. For the same compound, in experiment [2], the responders at 30 mg/kg is 50%.
Regarding `O=C(NCc1ccncc1)c1csc(CN2Cc3ccccc3Oc3ccc(Cl)cc32)n1` [Example 21, 2-[(8-chlorodibenzb,f][1,4]oxazepin-10(11H)yl)methyl]-N-(4-pyridinylmethyl)-4-thiazolecarboxamide, acetate, hydrochloride], the Kb in experiment [1] was 0.794 µM. The responders at 30 mg/kg in experiment [2] is 70%.
For `Cc1nc(CN2Cc3ccccc3Oc3ccc(Cl)cc32)cs1` [Example 23, 8-chloro-10,11-dihydro-10-[(2-methyl-4-thiazolyl)methyl]dibenz[b,f][1,4]oxazepine hydrochloride], in experiment [2], the responders at 30 mg/kg was 11.1%.
As a reminder, the ED50 is the dose at which the effect has come halfway, by size or by number of responders. Read a high ED50 as a need for a large dose. For `Cl.O=C(NCc1ccncc1)c1csc(N2Cc3ccccc3Oc3ccc(Cl)cc32)n1` [Example 26, 2-(8-Chlorodibenz[b,f][1,4]oxazepin-10(11H)-yl)-N-(4-pyridinylmethyl)-4-thiazolecarboxamide, monohydrochloride], the Kb in experiment [1] was 0.794 µM. Besides, in experiment [2] (mice, PBQ), the ED50 was 9.77 mg/kg.
With `CN(C)CCNC(=O)c1csc(N2Cc3ccccc3Oc3ccc(Cl)cc32)n1` [Example 27, 2-(8-Chlorodibenz[b,f][1,4]Oxazepin-10(11H)-yl)-N-[2-(dimethylamino)ethyl]-4-thiazolecarboxamide, monohydrochloride], the responders at 30 mg/kg in experiment [2] was 60%.
For `O=C(Nc1ccccn1)c1csc(N2Cc3ccccc3Oc3ccc(Cl)cc32)n1` [Example 30, 2-(8-Chlorodibenz[b,f][1,4]oxazepin-10(11H)-yl)-N-2-pyridinyl-4-thiazolecarboxamide, hydrochloride], the responders at 30 mg/kg in experiment [2] is 40%.
